Here are results for 7 compounds from patent publication US4124721A, “Pesticidal unsymmetrical bis-arylcarbamate sulfide compounds containing a 2,3, dehyrobenzofuran group” (priority 1977, dated 1978).

Each structure is given as a SMILES string. Values after ≈ are worked out from the molar mass of the structure shown. Read-outs that look alike come from different tables or passages of the source.

For orientation: LD50 means the dose expected to kill half of the subjects tested.

Common to all, as to format: in vivo
Series [1] in a line: peroral toxicity to mammals (rat LD50). The note with it: rat, in vivo, po, rat. The procedure:
(§1) Certain of these compositions were also evaluated to determine their peroral toxicity to mammals. The animal selected for this experiment was the rat. The test results obtained are expressed in terms of the number of milligrams of compositions per kilogram of weight of the animal required to achieve a mortality rate of 50 percent (LD50).
(§2) The results set forth in TABLE I clearly show the broad spectrum pesticidal activity of the compounds of this invention, as well as their reduced mammalian toxicity. It will be understood that the insect and mite species employed in the above tests are merely representative of a wide variety of pests that can be controlled through the use of the compounds of this invention. A series of comparative tests were conducted to evaluate the relative biological properties of the compounds of the invention and certain prior art compounds. The test procedures employed are identical to those discussed above. The results are reported in the parts per million of the compound required for a 50% kill (LD50).

Series [2] concerns house flies (Musca domestica, L.). Description: Fly Bait Test. The note with it: read-out: Housefly LD50. The procedure: (§3) Suspensions of the test compounds were prepared by dissolving one gram of compound in 50 milliliters of acetone in which had been dissolved 0.1 gram (10 percent of the weight of compound) of an alkylphenoxy polyethoxyethanol surfactant, as an emulsifying or dispersing agent. The resulting solution was mixed into 150 milliliters of water to give roughly 200 milliliters of a suspension containing the compound in finely divided form. The thusprepared stock suspension contained 0.5 percent by weight of compound. The test concentrations in parts per million by weight employed in the tests described hereinbelow were obtained by appropriate dilutions of the stock suspension with water. The test procedures were as follows:
Four to six day old adult house flies (Musca domestica, L.) reared according to the specifications of the Chemical Specialties Manufacturing Association (Blue Book, McNair-Dorland Co., N.Y. 1954; pages 243-244, 261) under controlled conditions of 80°±5° F. and 50±5 percent relative humidity, were the test insects. The flies were immobilized by anesthetizing with carbon dioxide and twenty five immobilized individuals, males and females, were transferred to a cage consisting of a standard food strainer about five inches in diameter which was inverted over a wrapping-paper-covered surface. The test compounds were formulated by diluting the stock suspension with a 10 percent (by weight) sugar solution to give a suspension containing 500 parts of test compound per million parts of final formulation, by weight. Ten milliliters of the test formulation were added to a souffle cup containing a one-inch square of an absorbent cotton pad. This bait cup was introduced and centered on the blotting paper under the food strainer prior to admitting the anesthetized flies. The caged flies were allowed to feed on the bait for 24 hours, at a temperature of 80°±5° F. and the relative humidity of 50±5 percent.
(§4) In these tests the pesticidal activity of the compounds against aphid, mite, Southern Armyworm, Bean Beetle and House Fly was rated as follows:
(§5) Dashes indicate no test conducted.
as §2

Series [3] deals with Mexican bean beetle (Epilachna varivestis, Muls.). The series can be described thus: Mexican Bean Beetle Leaf Spray Test. The note with it: read-out: Mexican Bean Beetle LD50. Here is the method: as §3
Mexican Bean Beetle Leaf Spray Test
Fourth instar larvae of the Mexican bean beetle Epilachna varivestis, Muls.), reared on Tendergreen bean plants at a temperature of 80°±5° F. and 50±5 percent relative humidity, were the test insects.
The test compounds were formulated by diluting the stock suspension with water to give a suspension containing 500 parts of test compound per million parts of final formulation. Potted Tendergreen bean plants of standard height and age were placed on a revolving turntable and sprayed with 100-110 milliliters of test compound formulation by use of a DeVilbiss spray gun set at 10 psig air pressure. This application, which lasted 25 seconds, was sufficient to wet plants to run-off. As a control, 100-110 milliliters of a water-acetone-emulsifier solution containing no test compound were also sprayed on infested plants. When dry, the paired leaves were separated and each was placed in a 9 centimeter Petri dish lined with moistened filter paper. Five randomly selected larvae were introduced into each dish, and the dishes were closed. The closed dishes were labeled and held at a temperature of 80°±5° F. for three days. Although the larvae could easily consume the leaf within 24 to 48 hours, no more food was added. Larvae which were unable to move the length of the body, even upon stimulation, were considered dead.
as §4, §5, §2

Series [4] concerns southern armyworm (Prodenia eridania, (Cram.)). Description: Southern Armyworm Leaf Spray Test. The note with it: Spodoptera eridania, read-out: Southern Armyworm LD50. The procedure:
as §3
Southern Armyworm Leaf Spray Test
Larvae of the southern armyworm (Prodenia eridania, (Cram.)), reared on Tendergreen bean plants at a temperature of 80°±5° F. and a relative humidity of 50±5 percent, constituted the test insects.
The test compounds were formulated by diluting the stock suspension with water to given a suspension containing 500 parts of test compound per million parts of final formulation. Potted Tendergreen bean plants of standard height and age were placed on a revolving turntable and sprayed with 100-110 milliliters of test compound formulation by use of a DeVilbiss spray gun set at 10 psig air pressure. This application, which lasted 25 seconds, was sufficient to wet plants to run-off. As a control, 100-110 milliliters of a water-acetone-emulsifier solution containing no test compound were also sprayed on infested plants. When dry, the paired leaves were separated and each one was placed in a 9 centimeter Petri dish lined with moistened filter paper. Five randomly selected larvae were introduced into each dish and the dishes were closed. The closed dishes were labeled and held at 80°-85° F. for three days. Although the larvae could easily consume the whole leaf within 24 hours, no more food was added. Larvae which were unable to move the length of the body, even upon stimulation by prodding, were considered dead. Percent mortality was recorded for various concentration levels.
as §4, §5, §2

Series [5] has as its system bean aphid (Aphis fabae Scop.). Description: Bean Aphid Foliage Spray Test. The note with it: foliar, read-out: Aphid LD50. Here is the method:
as §3
Bean Aphid Foliage Spray Test
Adults and nymphal stages of the bean aphid (Aphis fabae Scop.) reared on potted dwarf nasturtium plants at 65°-70° F. and 50-70 percent relative humidity, constituted the test insects. For testing purposes, the number of aphids per pot was standardized to 100-150 by trimming plants containing excess aphids.
The test compounds were formulated by diluting the stock suspension with water to give a suspension containing 500 parts of test compound per million parts of final formulation.
The potted plants (one pot per compound tested) infested with 100-150 aphids, were placed on a revolving turntable and sprayed with 100-110 milliliters of test compound formulation by use of a DeVilbiss spray gun set at 40 psig. air pressure. This application, which lasted 25 seconds, was sufficient to wet the plants to run-off. As a control, 100-110 milliliters of a water-acetone-emulsifier solution containing no test compound were also sprayed on infested plants. After spraying, the pots were placed on their sides on a sheet of white standard mimeograph paper which had been previously ruled to facilitate counting. Temperature and humidity in the test room during the 24 hour holding period were 65°-70° F. and 50-70 percent, respectively. Aphids which fell onto the paper and were unable to remain standing after being uprighted were considered dead. Aphis remaining on the plants were observed closely for movement and those which were unable to move the length of the body upon stimulation by prodding were considered dead. Percent mortality was recorded for various concentration levels.
as §4, §5, §2

For the next series, the system named is rat. Description: peroral toxicity to mammals (rat LD50). The note with it: for times less toxic to mammals than compound 1: rat LD50 relative to compound 1; for times less toxic to mammals than compound 2: rat LD50 relative to compound 2. Here is the method: as §1, §2
Setting [6] is: peroral, mortality rate of 50 percent, read-out: Rat LD50 (Table I).
Setting [7] is: comparative test, read-out: Rat LD50 (Table II).
Where [8] appears, read: concentration required for a 50% kill, comparative test.

Turning to `CN(SN(C)C(=O)Oc1cccc2c1OC(C)(C)C2)C(=O)Oc1ccc([N+](=O)[O-])cc1` [[2,2-Dimethyl-2,3-dihydro-7-benzofuranyl methylcarbamate]N-(4-nitrophenyl methylcarbamate]sulfide], the LD50 in series [1] (setting [6]) worked out at 25 mg/kg.
As to `CN(SN(C)C(=O)Oc1cccc2c1OC(C)(C)C2)C(=O)Oc1cccc2c1OC(C)(C)C2` [Compound 2, reference compound], the LC50 is 30 µg/mL (≈ 63.5 µM) in series [2], 2 µg/mL (≈ 4.23 µM) in series [3], 13 µg/mL (≈ 27.5 µM) in series [4] and 1 µg/mL (≈ 2.12 µM) in series [5]. In series [1] (setting [7]), the LD50 came to 6.3 mg/kg.
Turning to `CC(C)c1cccc(OC(=O)N(C)SN(C)C(=O)Oc2cccc3c2OC(C)(C)C3)c1` [Compound 3, [2,2-Dimethyl-2,3-dihydro-7-benzofuranyl methylcarbamate]N-[3-isopropylphenyl methylcarbamate]sulfide], the LC50 in series [2] was 22 µg/mL (≈ 49.5 µM); in series [3] it was 3 µg/mL (≈ 6.75 µM); in series [4], 20 µg/mL (≈ 45 µM); in series [5], 1 µg/mL (≈ 2.25 µM). In addition, the LD50 in series [1] (setting [6]) and in series [1] (setting [7]) was 80 mg/kg throughout. Also, the “times less toxic to mammals than compound 1” value with rat is “at least 16 times”. The “times less toxic to mammals than compound 2” value in the series on rat is “at least 13 times”.
With `CSc1ccc(OC(=O)N(C)SN(C)C(=O)Oc2cccc3c2OC(C)(C)C3)cc1C` [[2,2-Dimethyl-2,3-dihydro-7-benzofuranylmethylcarbamate]N-[3-methyl-4-methylthiophenyl methylcarbamate]sulfide], in series [1] (setting [6]), the LD50 stood at 18 mg/kg.
Turning to `CNC(=O)Oc1cccc2c1OC(C)(C)C2` [Compound 1, 2,3-dihydro-2,2-dimethyl-7-benzofuranyl methyl carbamate, reference compound], the LC50 in series [2] (setting [8]) worked out at 12 µg/mL (≈ 54.2 µM); in series [3] (setting [8]) it was 12 µg/mL (≈ 54.2 µM); in series [4] (setting [8]), 90 µg/mL (≈ 407 µM); in series [5] (setting [8]), 2 µg/mL (≈ 9.04 µM). Also, the LD50 in series [1] (setting [7]) was 5 mg/kg.
In the case of `CN(SN(C)C(=O)Oc1cccc2c1OC(C)(C)C2)C(=O)Oc1ccc(C(C)(C)C)cc1` [Compound 4, [2,2-Dimethyl-2,3-dihydro-7-benzofuranyl methylcarbamate]N-[4-t-butylphenylmethylcarbamate]sulfide], the LC50 in series [2] worked out at 17 µg/mL (≈ 37.1 µM); in series [3], 18 µg/mL (≈ 39.3 µM); in series [4], 23 µg/mL (≈ 50.2 µM); in series [5], 2 µg/mL (≈ 4.36 µM). In addition, the LD50 in series [1] (setting [6]) and in series [1] (setting [7]) was 45 mg/kg in each case. Besides, the “times less toxic to mammals as compound 2 (first of the two statements for compound 4)” value in the series on rat (rat LD50, printed relative to compound 2) is listed as “nine”. Further, the “times less toxic to mammals than compound 2” value in the series on rat is recorded as “seven”.
`CN(SN(C)C(=O)Oc1cccc2c1OC(C)(C)C2)C(=O)Oc1ccc([N+](=O)[O-])cc1` [Compound 5]: the LC50 came out at 45 µg/mL (≈ 101 µM) in series [2], 4 µg/mL (≈ 8.94 µM) in series [3], 20 µg/mL (≈ 44.7 µM) in series [4] and 2 µg/mL (≈ 4.47 µM) in series [5]. For the same compound, the LD50 in series [1] (setting [7]) was 25.2 mg/kg. The “times less toxic to mammals than compound 1” value in the series on rat is reported as “five”. Further, the “times less toxic to mammals than compound 2” value in the series on rat is on record as “four”.
